Assay results reported in patent publication US20200102349A1, “PEPTIDE REAGENTS AND METHODS FOR DETECTION AND TARGETING OF DYSPLASIA, EARLY CANCER AND CANCER” (THE REGENTS OF THE UNIVERSITY OF MICHIGAN, priority 2014, published 2020).

What was measured:
[1] = tested on: HT29 cells; assay: Peptide binding to colorectal cancer cells on confocal microscopy (HT29); assay type: cell-based, human; conditions: HT29, 5 μM, 3 min
Protocol: (§1) HT29, SW480, and SW620 cells (˜10^3) were grown on cover slips to ˜80% confluence. The cells were washed 1× with PBS and incubated with 5 μM of QRH*-Cy5.5 and PEH*-Cy5.5 for 3 min at RT. The cells were then washed 3× in PBS, fixed with 4% paraformaldehyde (PFA) for 5 min, washed 1× with PBS, and then mounted on glass slides with ProLong Gold reagent containing DAPI (Invitrogen). Confocal fluorescence images were collected with FITC, Cy5.5, and DAPI filters (Leica Inverted SPSX Confocal Microscope System) using a 63× oil-immersion objective. Fluorescence intensities from 5 cells in 2 independent images were quantified using custom Matlab (Mathworks) software.
(§2) We assessed binding of QRH*-Cy5.5 to a panel of colorectal cancer cells that vary in EGFR expression level on confocal microscopy. We observed binding of QRH*-Cy5.5 to the surface (arrows) of HT29, SW480, and SW620 cells with decreasing strength, FIG. 3A-C, scale bars 30 μm. […] Results are an average of 10 cells from 2 independent images. EGFR expression is shown on Western blot, FIG. 3H.

[2] = tested on: HT29 cells; assay: Apparent association time constant on flow cytometry; assay type: binding, human
Protocol: We measured the apparent association time constant of the peptide to HT29 cells as an assessment of binding onset. HT29 cells were grown to […] confluence in 10 cm dishes, and detached with PBS-based cell dissociation buffer (Invitrogen). Cells (˜10^5) were incubated with 5 μM QRH*-Cy5.5 at 4° C. for various time intervals ranging from 0 to 20 min. The cells were centrifuged, washed with cold PBS, and fixed with 4% PFA. Flow cytometry analysis was performed as described above, and the median fluorescence intensity (y) was ratioed with that of HT29 cells without addition of peptide at different time points (t) using Flowjo software. The rate constant k was calculated by fitting the data to a first order kinetics model, y(t)=Imax[1−exp^(−kt)], where Imax=maximum value,^60 using Prism 5.0 software (GraphPad Inc).

[3] = tested on: high-grade dysplasia in human esophagus; assay: Binding of QRH*-Cy5.5 to high-grade dysplasia in human esophagus
[4] = tested on: SW480 cells; assay: Peptide binding to colorectal cancer cells on confocal microscopy (SW480); assay type: cell-based, human; conditions: SW480, 5 μM, 3 min
Protocol: as §1, §2

[5] = tested on: human biliary tract epithelium; assay: Immunofluorescence of QRH*-Cy5.5 on human biliary tract epithelium

In the case of “QRHKPRE (SEQ ID NO: 1) with Cy5.5 fluorophore attached via a GGGSK linker (SEQ ID NO: 18) on the C-terminus [QRH*-Cy5.5]”, the “fluorescence intensity of binding (mean±std)” value [1] is reported as 3.6±0.6, the “binding time scale (onset)” value [2] is reported as 2.46 min and the “apparent association time constant k” value ([2]; 5 μM, 4° C., flow cytometry) is reported as 0.406 min⁻¹. The “staining of high-grade dysplasia (HGD)” value [3] was “Intense staining”, the “fluorescence intensity of binding (mean±std)” value [4] was 2.4±0.4 and the staining on immunofluorescence ([5]; biliary intraepithelial neoplasia (BilIN) and biliary tract cancer) was “intense staining”. The staining on immunofluorescence ([5]; normal biliary tract epithelium) was “minimal staining”.
